Tested on: GA-primed murine splenocytes
Assay: ANOVA-based pattern identification method
Format: cell-based, mouse
Settings: DOWN IN GA AND REF ONLY
Excerpt: We sought to identify probes matching specific patterns of expression across experimental conditions using a technique that referred to as the ANOVA-based Pattern Identification Method.
To carry out the analysis in a general manner, we computed the 6 p-values required to do pairwise comparisons of all 4 conditions for all probes using the ANOVA1 function in MATLAB. We then identified sets of probes matching the desired pattern. In the example above, probes were identified as being only affected by PG if their 6 pairwise comparison pvalues matched the following pattern (pGA-PG<0.05, pPG-reference standard<0.05, pPG-Medium<0.05, pGAMedium>0.05, pGA-reference standard>0.05, preference standard-Medium>0.05).

glatiramer acetate [GA]
AA536749 expression level: 8.75
C5F3R expression level: 5.814
CD33 expression level: 6.382
CD63 expression level: 7.484
CLEC4E expression level: 6.76
CXCR4 expression level: 9.154
GAS7 expression level: 6.685
GPR97 expression level: 6.1434
KLC4 expression level: 7.786
LOC385923 expression level: 7.651
LOC386268 expression level: 6.655
LOC386288 expression level: 7.006
LOC386360 expression level: 9.445
TMEM38B expression level: 8.3
average expression of 1100001G20RIK: 6.239
average expression of 1110014N23RIK: 9.678
average expression of 1200002N14RIK: 6.896
average expression of 1300010F03R1K: 6.604
average expression of 1300010F03RIK: 6.764
average expression of 1700073E17RIK: 5.669
average expression of 1810009N02RIK: 8.11
average expression of 1810030N24RIK: 6.84
average expression of 2010001M09RIK: 13.2
average expression of 2310040G07RIK: 5.712
average expression of 2310067B10RIK: 7.502
average expression of 2310079N02RIK: 9.098
average expression of 2510022D24RIK: 8.141
average expression of 2610024M03RIK: 6.018
average expression of 2610028H07RIK: 10.1
average expression of 2810402K13RIK: 8.169
average expression of 2810422O20RIK: 7.018
average expression of 2900079J23RIK: 5.766
average expression of 3110004L20RIK: 5.934
average expression of 3110082D06RIK: 5.99
average expression of 4930519F16RIK: 5.617
average expression of 4930572J05RIK: 10.41
average expression of 5031439G07RIK: 7.967
average expression of 5330417C22RIK: 5.64
average expression of 5830415F09RIK: 6.998
average expression of 6230425C21RIK: 7.021
average expression of 6430511F03: 6.247
average expression of 6430526N21RIK: 7.232
average expression of 6720480F11RIK: 5.641
average expression of 6720486H14RIK: 5.584
average expression of 9030025P20RIK: 8.593
average expression of 9330152L17: 5.75
average expression of A430043M19RIK: 6.108
average expression of A630038P11RIK: 5.552
average expression of A730017D01RIK: 6.519
average expression of A930014P08RIK: 5.554
average expression of ABCC4: 7.757
average expression of ACBD4: 9.154
average expression of ACP2: 6.811
average expression of ACTR3B: 6.47
average expression of ADAM11: 5.629
average expression of AGAP1: 5.989
average expression of ANKRD13A: 10.24
average expression of APP: 6.949
average expression of ARHGAP22: 6.192
average expression of ATP6V1B2: 10.4
average expression of AW011738: 6.2494
average expression of B130002B06RIK: 5.7347
average expression of B930048N13RIK: 5.895
average expression of B930049N04RIK: 5.592
average expression of B930097H17RIK: 5.792
average expression of BC014795: 8.05
average expression of BC065397: 6.46
average expression of BC066107: 6.578
average expression of BMP3: 5.623
average expression of BRD2: 11.26
average expression of C330019G07RIK: 6.738
average expression of C430003P19RIK: 9.571
average expression of CAGE1: 5.862
average expression of CASP1: 11.51
average expression of CBLC: 5.866
average expression of CD151: 8.029
average expression of CENTG3: 6.784
average expression of CEPT1: 10.22
average expression of CFB: 6.244
average expression of CLEC4A1: 6.263
average expression of CLEC5A: 5.873
average expression of CNTNAP3: 5.796
average expression of COgeneric: 8.105
average expression of CREG1: 6.616
average expression of CRTAC1: 5.925
average expression of CTSL: 5.744
average expression of D030051N19RIK: 8.287
average expression of D030072B18RIK: 5.56
average expression of DGKQ: 6.895
average expression of DLG3: 7.023
average expression of DNMT3L: 6.042
average expression of DUSP6: 5.768
average expression of E330023P07RIK: 5.77
average expression of EG434402: 9.171
average expression of EG633640: 6.136
average expression of ELL: 9.635
average expression of EPB4.1L3: 5.896
average expression of EPN3: 5.711
average expression of ERCC4: 8.15
average expression of FA2H: 5.977
average expression of FBXL20: 7.805
average expression of FCMD: 6.473
average expression of FOS: 6.875
average expression of FRMPD1: 5.584
average expression of GAA: 8.021
average expression of GALGT1: 7.448
average expression of GALNT10: 8.096
average expression of GDPD1: 6.392
average expression of GM498: 5.674
average expression of GPS2: 9.303
average expression of GSTM2: 5.945
average expression of GTPBP1: 9.185
average expression of HMOX1: 6.561
average expression of HRSP12: 8.037
average expression of IGK-V33: 9.992
average expression of IGLC2_J00595—IG_LAMBDA—CONSTANT_2_14: 13.7
average expression of IRAK3: 9.019
average expression of IRF3: 7.749
average expression of IVD: 9.212
average expression of KCNC4: 5.832
average expression of KRT39: 5.551
average expression of KRTAP5-4: 5.651
average expression of LOC193563: 5.759
average expression of LOC238836: 13.84
average expression of LOC243025: 6.623
average expression of LOC327767: 5.978
